Measured values taken from PMC6366423 (Journal of Enzyme Inhibition and Medicinal Chemistry, 2019).

Tests used:
[1] = Oxygen radical absorbance capacity assay (ORAC-FL); details: Trolox equivalents (TE), mean (n = 3) ± SD
[2] = molecular target: T1, hMAOA (Homo sapiens, UniProt P21397); experiment: MAO activity assay (kynuramine, HPLC-MS); format: biochemical; details: for inhibition at 10 µM: read-out: hMAOA enzymatic inhibition (%)
T1 sequence (P21397 1-527): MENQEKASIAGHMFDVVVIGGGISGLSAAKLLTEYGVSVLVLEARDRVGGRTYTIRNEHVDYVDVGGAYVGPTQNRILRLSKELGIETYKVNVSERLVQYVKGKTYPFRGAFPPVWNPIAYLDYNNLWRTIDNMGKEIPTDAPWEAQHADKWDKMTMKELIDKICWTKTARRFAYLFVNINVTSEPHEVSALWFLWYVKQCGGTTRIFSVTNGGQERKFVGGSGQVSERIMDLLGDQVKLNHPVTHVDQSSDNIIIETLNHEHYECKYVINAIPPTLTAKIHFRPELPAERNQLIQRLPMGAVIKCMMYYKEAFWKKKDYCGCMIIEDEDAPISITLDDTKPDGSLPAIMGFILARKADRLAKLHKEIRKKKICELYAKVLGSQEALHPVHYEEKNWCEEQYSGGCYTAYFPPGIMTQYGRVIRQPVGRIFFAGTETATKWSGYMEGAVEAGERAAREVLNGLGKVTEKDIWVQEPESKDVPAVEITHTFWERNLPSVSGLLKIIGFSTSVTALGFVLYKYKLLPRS

[3] = molecular target: T2, hMAOB (Homo sapiens, UniProt P27338); experiment: MAO activity assay (kynuramine, HPLC-MS); format: biochemical; details: for inhibition at 10 µM: read-out: hMAOB enzymatic inhibition (%)
T2 sequence (P27338 1-520): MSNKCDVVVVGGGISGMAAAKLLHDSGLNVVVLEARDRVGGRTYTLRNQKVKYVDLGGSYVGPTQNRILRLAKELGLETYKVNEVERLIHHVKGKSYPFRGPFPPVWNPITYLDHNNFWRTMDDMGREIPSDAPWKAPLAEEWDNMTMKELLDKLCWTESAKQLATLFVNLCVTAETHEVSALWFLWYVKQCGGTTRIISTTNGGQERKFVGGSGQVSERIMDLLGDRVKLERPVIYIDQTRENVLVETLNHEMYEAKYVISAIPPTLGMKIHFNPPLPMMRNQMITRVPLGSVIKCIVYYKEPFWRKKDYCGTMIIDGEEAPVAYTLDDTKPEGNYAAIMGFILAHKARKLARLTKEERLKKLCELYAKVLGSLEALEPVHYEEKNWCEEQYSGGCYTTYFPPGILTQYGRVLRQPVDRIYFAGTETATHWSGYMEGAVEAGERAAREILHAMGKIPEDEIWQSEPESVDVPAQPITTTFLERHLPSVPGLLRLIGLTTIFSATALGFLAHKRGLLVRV

[4] = molecular target: T3, EeAChE (Electrophorus electricus, UniProt O42275); experiment: biochemical
T3 construct: EeAChE (type VI-S, purified from Electrophorus electricus); tissue type VI-S
T3 sequence (O42275 24-633): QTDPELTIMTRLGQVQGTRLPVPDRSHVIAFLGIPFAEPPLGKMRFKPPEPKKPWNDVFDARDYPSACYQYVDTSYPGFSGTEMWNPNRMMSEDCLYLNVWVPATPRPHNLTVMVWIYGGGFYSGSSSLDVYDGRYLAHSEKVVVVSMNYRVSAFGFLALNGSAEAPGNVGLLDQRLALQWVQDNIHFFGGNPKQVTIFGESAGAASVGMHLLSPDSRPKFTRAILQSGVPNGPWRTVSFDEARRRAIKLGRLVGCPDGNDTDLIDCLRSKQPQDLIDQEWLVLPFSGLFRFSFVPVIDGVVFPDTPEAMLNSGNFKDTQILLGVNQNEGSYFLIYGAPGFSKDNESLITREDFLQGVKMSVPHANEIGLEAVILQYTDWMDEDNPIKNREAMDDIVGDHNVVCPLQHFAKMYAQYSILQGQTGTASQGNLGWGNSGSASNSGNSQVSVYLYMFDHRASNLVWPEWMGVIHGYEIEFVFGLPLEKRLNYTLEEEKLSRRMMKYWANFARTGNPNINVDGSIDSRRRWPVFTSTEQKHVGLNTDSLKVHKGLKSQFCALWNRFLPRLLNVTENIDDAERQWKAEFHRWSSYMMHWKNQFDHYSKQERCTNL
Description: (§1) Inhibition of EeAChE and eqBuChE of hybrids 14a–p was carried out with EeAChE (type VI-S, purified from Electrophorus electricus) and eqBuChE (purified from equine serum) using Ellman’s protocol. Briefly, the reaction was performed in a final volume of 3 ml of a phosphate-buffered solution (0.1 M) at pH = 8.0 containing 5,5’-dithiobis-2-nitrobenzoic acid (DTNB) (2.625 μL, 0.35 mM), EeAChE (29 μl, 0.035 U/mL) or eqBuChE (60 μl, 0.05 U/mL), Bovine Albumin Serum phosphate-buffered solution (40 μL 1% w/v), and tested compound (3 µL). After 10 min of incubation, the substrate, AcTCh) iodide or butyrylthiocholine (BuTCh) iodide, was added, and the reaction was incubated for an additional 15 min.

[5] = molecular target: T4, eqBuChE (Equus caballus, UniProt P81908); experiment: biochemical; format: biochemical, equine; details: for IC50: mean ± SEM
T4 construct: eqBuChE (purified from equine serum); from tissue; host or cells: equine serum
T4 sequence (P81908 whole entry): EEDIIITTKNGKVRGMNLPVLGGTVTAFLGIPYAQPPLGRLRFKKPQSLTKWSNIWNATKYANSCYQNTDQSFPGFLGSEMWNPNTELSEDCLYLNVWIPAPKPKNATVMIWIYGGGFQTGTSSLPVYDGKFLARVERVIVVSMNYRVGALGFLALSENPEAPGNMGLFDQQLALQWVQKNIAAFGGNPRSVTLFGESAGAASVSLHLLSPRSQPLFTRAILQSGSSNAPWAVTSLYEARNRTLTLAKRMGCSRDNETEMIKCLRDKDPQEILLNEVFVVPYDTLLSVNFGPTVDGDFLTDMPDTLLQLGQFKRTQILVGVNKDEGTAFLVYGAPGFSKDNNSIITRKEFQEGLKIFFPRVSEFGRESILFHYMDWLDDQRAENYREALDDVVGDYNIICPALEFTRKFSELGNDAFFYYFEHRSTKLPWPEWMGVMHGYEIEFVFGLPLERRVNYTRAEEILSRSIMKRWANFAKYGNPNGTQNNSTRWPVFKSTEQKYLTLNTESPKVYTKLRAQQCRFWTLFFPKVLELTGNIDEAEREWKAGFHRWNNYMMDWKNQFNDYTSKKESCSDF
Description: as §1

[6] = molecular target: T5, hAChE (Homo sapiens, UniProt P22303); experiment: biochemical; format: biochemical; details: for inhibition at 10 µM: read-out: hAChE enzymatic inhibition (%); for IC50: mean ± SEM
T5 construct: purchased Sigma Aldrich; host or cells: HEK 293
T5 sequence (P22303 32-614): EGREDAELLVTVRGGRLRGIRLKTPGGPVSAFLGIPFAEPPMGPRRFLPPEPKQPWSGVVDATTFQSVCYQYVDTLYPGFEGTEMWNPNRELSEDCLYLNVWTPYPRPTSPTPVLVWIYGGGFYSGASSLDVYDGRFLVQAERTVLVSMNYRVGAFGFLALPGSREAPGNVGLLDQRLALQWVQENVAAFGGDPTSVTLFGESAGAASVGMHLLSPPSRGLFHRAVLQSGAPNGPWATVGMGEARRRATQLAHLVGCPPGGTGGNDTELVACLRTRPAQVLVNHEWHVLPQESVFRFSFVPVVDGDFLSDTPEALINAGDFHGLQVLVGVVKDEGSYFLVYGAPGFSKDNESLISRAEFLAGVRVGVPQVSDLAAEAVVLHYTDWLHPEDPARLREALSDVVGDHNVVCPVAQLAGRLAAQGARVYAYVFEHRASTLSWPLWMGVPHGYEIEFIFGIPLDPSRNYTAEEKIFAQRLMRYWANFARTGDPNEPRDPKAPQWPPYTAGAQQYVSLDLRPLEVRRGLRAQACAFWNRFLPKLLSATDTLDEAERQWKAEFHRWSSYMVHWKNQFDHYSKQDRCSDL

[7] = molecular target: T6, hBuChE (Homo sapiens, UniProt P06276); experiment: biochemical; format: biochemical; details: for inhibition at 10 µM: read-out: hBuChE enzymatic inhibition (%); for IC50: mean ± SEM
T6 construct: hBuChE from human serum (Sigma Aldrich, Madrid, Spain); purchased Sigma Aldrich; host or cells: human serum
T6 sequence (P06276 29-602): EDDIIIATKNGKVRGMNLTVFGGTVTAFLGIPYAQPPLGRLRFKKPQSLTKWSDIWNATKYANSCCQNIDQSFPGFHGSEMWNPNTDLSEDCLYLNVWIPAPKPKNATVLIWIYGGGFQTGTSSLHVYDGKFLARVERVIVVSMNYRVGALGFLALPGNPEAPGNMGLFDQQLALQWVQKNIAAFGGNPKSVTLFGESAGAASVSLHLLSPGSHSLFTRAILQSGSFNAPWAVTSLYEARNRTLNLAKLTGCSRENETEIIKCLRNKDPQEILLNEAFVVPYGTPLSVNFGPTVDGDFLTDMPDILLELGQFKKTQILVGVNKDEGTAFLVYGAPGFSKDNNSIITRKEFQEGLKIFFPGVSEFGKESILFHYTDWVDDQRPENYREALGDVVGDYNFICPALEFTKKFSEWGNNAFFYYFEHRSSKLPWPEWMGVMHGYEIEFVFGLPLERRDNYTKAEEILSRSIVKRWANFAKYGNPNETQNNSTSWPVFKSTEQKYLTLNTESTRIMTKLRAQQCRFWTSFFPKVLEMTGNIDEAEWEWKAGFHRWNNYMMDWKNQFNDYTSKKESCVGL

SMILES	ORAC (Eq Trolox) [1] [Eq Trolox]	inhibition at 10 µM [2] [%]	inhibition at 10 µM [3] [%]	IC50 ([4]; mean ± SEM) [nM]	IC50 ([4]; values given in nM) [nM]	IC50 [5] [µM]	inhibition at 10 µM [6] [%]	inhibition at 10 µM [7] [%]	IC50 [2] [µM]	IC50 [6] [µM]	IC50 [7] [µM]	IC50 ([3]; IC50 hMAOB, mean ± SEM) [µM]	hAChE, fold less active than Donepezil [6] [fold]	eqBuChE potency, fold more potent than Donepezil [5] [fold]	inhibition at 10 µM ([4]; at 10 μM, read-out: EeAChE enzymatic inhibition (%)) [%]	ORAC (Eq Trolox) ([1]; listed as [14]i)
CC(C)Oc1ccc2[nH]cc(CCNC(=O)CN(CCCCC3CCN(Cc4ccccc4)CC3)C(=O)c3cc(=O)c4ccccc4o3)c2c1 [14o]	2.63 ± 0.12	< 40	< 40	90	88.5	0.0466 ± 0.00276	< 50	< 50								
CCCOc1ccc2[nH]cc(CCNC(=O)CN(CCCCC3CCN(Cc4ccccc4)CC3)C(=O)c3cc(=O)c4ccccc4o3)c2c1 [14p]	2.67 ± 0.15		< 40	80		0.0613 ± 0.00548			1.39 ± 0.11	2.1 ± 0.51	0.0804 ± 0.0124					
COc1ccc2[nH]cc(CCNC(=O)CN(CCC3CCN(Cc4ccccc4)CC3)C(=O)c3cc(=O)c4ccccc4o3)c2c1 [14f]	6.13 ± 0.09	< 40				0.026 ± 0.00237				0.36 ± 0.16	0.2718 ± 0.00175	80.6 ± 13.9	15			
O=C(CN(CCC1CCN(Cc2ccccc2)CC1)C(=O)c1cc(=O)c2ccccc2o1)NCCc1c[nH]c2ccccc12 [14e]	6.52 ± 0.37	< 40	< 40	1430 ± 50		0.0296 ± 0.00238				2.62 ± 0.53	0.0333 ± 0.00055					
O=C(CN(CCCCC1CCN(Cc2ccccc2)CC1)C(=O)c1cc(=O)c2ccccc2o1)NCCc1c[nH]c2ccccc12 [14m]	2.97 ± 0.16	< 40	< 40	60	58.2	0.355 ± 0.00841	< 50	< 50								
CC(C)Oc1ccc2[nH]cc(CCNC(=O)CN(CCC3CCN(Cc4ccccc4)CC3)C(=O)c3cc(=O)c4ccccc4o3)c2c1 [14g]	5.05 ± 0.15	< 40	< 40	1050 ± 60		0.00629 ± 0.00073				2 ± 0.07	0.025 ± 0.0002			133		
Nc1c2c(nc3ccccc13)CCCC2 [Tacrine, reference compound]	0.2 ± 0.1															
O=C(CN(CC1CCN(Cc2ccccc2)CC1)C(=O)c1cc(=O)c2ccccc2o1)NCCc1c[nH]c2ccccc12 [14a]	6.28 ± 0.12		< 40			0.496 ± 0.00707	< 50		2		1.17				< 50	
O=C(CN(CCCC1CCN(Cc2ccccc2)CC1)C(=O)c1cc(=O)c2ccccc2o1)NCCc1c[nH]c2ccccc12 [14i]	6.92	< 40	< 40	260 ± 10		0.0501 ± 0.00519	< 50	< 50								6.92 ± 0.32
